How the values were obtained:
Test in all cases: Bliss excess, mean over the matrix (fraction); higher = more synergy
[1] = system: ALL-PO (B-Lymphoblastic Leukemia)
Procedure, shortened: (§1)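 Cell lines grown in DMEM/F12 or RPMI with 10% FBS were plated in 1536-well plates and held 24 hours at 37°C, 5% CO2 before 72 hours of exposure to two-drug dose matrices, with DMSO typically at 0.2%. CellTiter-Glo 2.0 luminescence gave viability, which was converted to inhibition. Vehicle wells were set to 0 and blank wells to 1. Combination Emax is the second-highest inhibition in the matrix, and Bliss excess is the observed combination effect minus the expected EA + EB − EA·EB, where EA and EB are the single-agent effects.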

[2] = system: BPH-1 (Non-Cancerous)
Procedure, shortened: as §1

[3] = system: KYAE-1 (Esophageal Adenocarcinoma)
Procedure, shortened: as §1

[4] = system: SNU-449 (Hepatocellular Carcinoma)
Procedure, shortened: as §1

[5] = system: HH (T-Cell Non-Hodgkin's Lymphoma)
Procedure, shortened: as §1

[6] = system: NCI-H209 (Small Cell Lung Carcinoma)
Procedure, shortened: as §1

[7] = system: YAPC (Pancreatic Carcinoma)
Procedure, shortened: as §1

[8] = system: NCI-H1568 (Lung Adenocarcinoma)
Procedure, shortened: as §1

[9] = system: BFTC-909 (Kidney Carcinoma)
Procedure, shortened: as §1

[10] = system: NCI-H2722 (Mesothelioma)
Procedure, shortened: as §1

Structure (SMILES)	Bliss excess [1]	Bliss excess [2]	Bliss excess [3]	Bliss excess [4]	Bliss excess [5]	Bliss excess [6]	Bliss excess [7]	Bliss excess [8]	Bliss excess [9]	Bliss excess [10]
CN(CCO)CC[C@H](CSc1ccccc1)Nc1ccc(S(=O)(=O)NC(=O)c2ccc(N3CCC([C@@H](O)c4ccccc4-c4ccc(Cl)cc4)CC3)cc2)cc1S(=O)(=O)C(F)(F)F [AZD4320] + CN(C)CCCOc1ccc(-c2ccc3ncc4c(c3c2)n(C2CCOCC2)c(=O)n4C)cn1 [AZD0156] (first compound max 1 µM, 7x7, partner max 1 µM)	0.0031	-0.0216	-0.0114	-0.0828	-0.0203	0.033	-0.028	-0.0099	0.009	-0.0276
Cc1c2c(nn1C)CSCc1cc(n(C)n1)CSc1cc(c3ccccc3c1)OCCCc1c(C(=O)O)n(C)c3c-2c(Cl)ccc13 [AZD5991] + CN(C)CCCOc1ccc(-c2ccc3ncc4c(c3c2)n(C2CCOCC2)c(=O)n4C)cn1 [AZD0156] (first compound max 1 µM, 7x7, partner max 1 µM)	-0.0005	0.0896	-0.0009	-0.0243	-0.0248	0.008	0.0081	-0.0091	0.0101	-0.0302
Cn1cnc2c(F)c(Nc3ccc(Br)cc3Cl)c(C(=O)NOCCO)cc21 [Selumetinib] + C[C@@H]1COCCN1C2=NC(=NC(=C2)C3(CC3)[S@](=N)(=O)C)C4=C5C=CNC5=NC=C4 [AZD6738] (first compound max 10 µM, 7x7, partner max 10 µM)	0.0391	0.108	-0.0243	-0.0403	-0.038	-0.0403	-0.0019	-0.0261	-0.025	-0.0455
Cn1cnc2c(F)c(Nc3ccc(Br)cc3Cl)c(C(=O)NOCCO)cc21 [Selumetinib] + CCN(CCO)CCCOc1ccc2c(Nc3cc(CC(=O)Nc4cccc(F)c4)[nH]n3)ncnc2c1 [AZD2811] (first compound max 10 µM, 7x7, partner max 1 µM)	-0.0029	0.0204	-0.0212	-0.0582	-0.0825	0.0805	-0.0654	-0.0612	-0.0093	-0.0834
NC1(C(=O)N[C@@H](CCO)c2ccc(Cl)cc2)CCN(c2ncnc3[nH]ccc23)CC1 [Capivasertib] + CCN(CCO)CCCOc1ccc2c(Nc3cc(CC(=O)Nc4cccc(F)c4)[nH]n3)ncnc2c1 [AZD2811] (first compound max 10 µM, 7x7, partner max 1 µM)	-0.0254	0.0118	0.0023	-0.0166	-0.0221	-0.0383	0.0161	-0.0235	0.0366	-0.0044
CC(=O)c1c(C)c2cnc(Nc3ccc(N4CCNCC4)cn3)nc2n(C2CCCC2)c1=O [Palbociclib] + Cc1c2c(nn1C)CSCc1cc(n(C)n1)CSc1cc(c3ccccc3c1)OCCCc1c(C(=O)O)n(C)c3c-2c(Cl)ccc13 [AZD5991] (first compound max 10 µM, 7x7, partner max 1 µM)	-0.0065	-0.0476	0.0035	-0.0187	-0.131	-0.0107	-0.0037	-0.0149	0.0029	-0.0649
CN(CCO)CC[C@H](CSc1ccccc1)Nc1ccc(S(=O)(=O)NC(=O)c2ccc(N3CCC([C@@H](O)c4ccccc4-c4ccc(Cl)cc4)CC3)cc2)cc1S(=O)(=O)C(F)(F)F [AZD4320] + C[C@@H]1COCCN1C2=NC(=NC(=C2)C3(CC3)[S@](=N)(=O)C)C4=C5C=CNC5=NC=C4 [AZD6738] (first compound max 1 µM, 7x7, partner max 10 µM)	0.0019	-0.0979	0.0036	-0.0721	-0.0454	0.0545	-0.0423	-0.0135	0.042	-0.0307
CN(CCO)CC[C@H](CSc1ccccc1)Nc1ccc(S(=O)(=O)NC(=O)c2ccc(N3CCC([C@@H](O)c4ccccc4-c4ccc(Cl)cc4)CC3)cc2)cc1S(=O)(=O)C(F)(F)F [AZD4320] + C=CCn1c(=O)c2cnc(Nc3ccc(N4CCN(C)CC4)cc3)nc2n1-c1cccc(C(C)(C)O)n1 [AZD1775] (first compound max 1 µM, partner max 1 µM)	0.0631	0.0378	0.032	-0.0744	0.0911	0.0963	-0.0482	0.0492	0.0577	0.042
NC1(C(=O)N[C@@H](CCO)c2ccc(Cl)cc2)CCN(c2ncnc3[nH]ccc23)CC1 [Capivasertib] + C[C@@H]1COCCN1C2=NC(=NC(=C2)C3(CC3)[S@](=N)(=O)C)C4=C5C=CNC5=NC=C4 [AZD6738] (first compound max 10 µM, 7x7, partner max 10 µM)	0.0103	-0.0497	0.0014	-0.0057	-0.0396	-0.0054	0.0093	-0.0216	-0.0878	-0.0119
COc1nnc2ccc(N3CCC(c4ccc(OCCN5CCN(C)C(=O)[C@H]5C)cc4)CC3)nn12 [AZD5153] + Cc1c2c(nn1C)CSCc1cc(n(C)n1)CSc1cc(c3ccccc3c1)OCCCc1c(C(=O)O)n(C)c3c-2c(Cl)ccc13 [AZD5991] (first compound max 1 µM, 7x7, partner max 1 µM)	0.0091	-0.0093	-0.0291	-0.0368	0.0776	0.0546	-0.0355	-0.0309	-0.0034	-0.016
Cc1c2c(nn1C)CSCc1cc(n(C)n1)CSc1cc(c3ccccc3c1)OCCCc1c(C(=O)O)n(C)c3c-2c(Cl)ccc13 [AZD5991] + Cn1cnc2c(F)c(Nc3ccc(Br)cc3Cl)c(C(=O)NOCCO)cc21 [Selumetinib] (first compound max 1 µM, 7x7, partner max 3 µM)	0.0056	0.0216	-0.0155	-0.0846	-0.0664	-0.0778	-0.003	0.102	0.0607	0.0081
CC1(C)CCC(CN2CCN(c3ccc(C(=O)NS(=O)(=O)c4ccc(NCC5CCOCC5)c([N+](=O)[O-])c4)c(Oc4cnc5[nH]ccc5c4)c3)CC2)=C(c2ccc(Cl)cc2)C1 [Venetoclax] + COc1cc(Nc2ncc3c(n2)-c2ccc(Cl)cc2C(c2c(F)cccc2OC)=NC3)ccc1C(=O)O [Alisertib] (first compound max 1 µM, 7x7, partner max 10 µM)	0.0529	-0.0459	-0.119	-0.0753	-0.0223	0.318	-0.0354	-0.0418	0.0116	-0.0855
Cn1cnc2c(F)c(Nc3ccc(Br)cc3Cl)c(C(=O)NOCCO)cc21 [Selumetinib] + CC(C)n1c(=O)n(C)c2cnc3cc(F)c(-c4ccc(OCCCN5CCCCC5)nc4)cc3c21 [AZD1390] (first compound max 10 µM, 7x7, partner max 0.3 µM)	0.0208	0.026	-0.026	-0.0464	-0.0536	-0.037	-0.033	-0.0508	-0.024	-0.0678
CS(=O)(=O)CCNCc1ccc(-c2ccc3ncnc(Nc4ccc(OCc5cccc(F)c5)c(Cl)c4)c3c2)o1 [Lapatinib] + C[C@@H](Oc1cc(-c2cnn(C3CCNCC3)c2)cnc1N)c1c(Cl)ccc(F)c1Cl [Crizotinib] (first compound max 10 µM, 7x7, partner max 10 µM)	0.035	-0.0078	-0.0171	-0.0453	-0.0405	-0.003	-0.0168	-0.0174	-0.0651	-0.0713
CC1(C)CCC(CN2CCN(c3ccc(C(=O)NS(=O)(=O)c4ccc(NCC5CCOCC5)c([N+](=O)[O-])c4)c(Oc4cnc5[nH]ccc5c4)c3)CC2)=C(c2ccc(Cl)cc2)C1 [Venetoclax] + Cc1cc2ncnn2cc1Nc1ncc2c(n1)n(C1CCOCC1)c(=O)n2C [AZD7648] (first compound max 1 µM, 7x7, partner max 10 µM)	0.11	-0.0517	-0.0128	-0.0699	-0.0061	0.0416	-0.0143	-0.0256	0.0017	-0.042
CC(=O)c1c(C)c2cnc(Nc3ccc(N4CCNCC4)cn3)nc2n(C2CCCC2)c1=O [Palbociclib] + Cn1cnc2c(F)c(Nc3ccc(Br)cc3Cl)c(C(=O)NOCCO)cc21 [Selumetinib] (first compound max 10 µM, 7x7, partner max 10 µM)	0.0243	-0.0755	-0.0125	-0.0006	-0.0471	-0.0528	0.0156	-0.109	0.0424	-0.069

Source: the supplement of paper PMC11061612
